Results as given in ChEMBL document CHEMBL1128776, “Palladium-catalyzed synthesis of (E)-5-(2-acylvinyl)-2-deoxyuridines and their antiviral and cytotoxic activities” (Bioorg Med Chem Lett, 1995).
In brackets after ≈: the same amount, converted by molar mass.

What was measured:
Vero [1] = assay: Minimum cytotoxic concentration against vero cells; format: functional; conditions: Chlorocebus sabaeus
HEL [2] = assay: Minimum cytotoxic concentration against human embryonic lung (HEL) cells; format: functional
HEL [3] = assay: Evaluated in vitro for antiviral activity in HeLa cell cultures against polio virus type 1; format: functional; conditions: Homo sapiens
HEL [4] = assay: Evaluated in vitro for antiviral activity in human embryonic lung (HEL) cell cultures against TK- Varicella-Zoster virus (VZV) strain YS/R; format: functional, cell-based
MOLT-4 = assay: Evaluated in vitro for cytostatic activity against human T-lymphocyte cells (Molt 4/C8); format: functional, cell-based
E6SM [5] = assay: Minimum cytotoxic concentration against E6SM cells; format: functional; conditions: Homo sapiens
E6SM [6] = assay: In vitro antiviral activity in E6 cell cultures against herpes simplex virus type 1 (HSV-1) TK- VMW 1837; format: functional; conditions: Homo sapiens
CCRF-CEM [7] = assay: 50% effective concentration required to protect CEM cells against the cytopathogenicity of HIV-2; format: functional, cell-based; conditions: Homo sapiens
Vero [8] = assay: Evaluated in vitro for antiviral activity in vero cell cultures against Coxsackie virus type B4; format: functional; conditions: Chlorocebus sabaeus
HEL [9] = assay: Evaluated in vitro for antiviral activity in human embryonic lung (HEL) cell cultures against TK + VZV strain OKA; format: functional, cell-based
E6SM [10] = assay: In vitro antiviral activity in E6 cell cultures against herpes simplex virus type 1 (HSV-1) TK- B2006; format: functional; conditions: Homo sapiens
HEL [11] = assay: Evaluated in vitro for antiviral activity in human embryonic lung (HEL) cell cultures against cytomegalovirus (CMV) strain Davis; format: functional, cell-based
FM3A = assay: Evaluated in vitro for cytostatic activity against murine mammary carcinoma cells (FM3A); format: functional, cell-based; conditions: Mus musculus
HEL [12] = assay: Evaluated in vitro for antiviral activity in HeLa cell cultures against vesicular stomatitis virus (VSV); format: functional; conditions: Homo sapiens
E6SM [13] = assay: In vitro antiviral activity in E6 cell cultures against vaccinia virus (VV); format: functional; conditions: Homo sapiens
HeLa = assay: Minimum cytotoxic concentration against HeLa cells; format: functional; conditions: Homo sapiens
E6SM [14] = assay: In vitro antiviral activity in E6 cell cultures against herpes simplex virus type 1 (HSV-1) strain KOS; format: functional; conditions: Homo sapiens
Vero [15] = assay: Evaluated in vitro for antiviral activity in vero cell cultures against Reovirus type 1; format: functional; conditions: Chlorocebus sabaeus
HEL [16] = assay: Evaluated in vitro for antiviral activity in human embryonic lung (HEL) cell cultures against TK - VZV strain OKA; format: functional, cell-based
L1210 = assay: Evaluated in vitro for cytostatic activity against murine leukemia cells (L1210); format: functional, cell-based; conditions: Mus musculus
Vero [17] = assay: Evaluated in vitro for antiviral activity in vero cell cultures against Sindbis virus; format: functional; conditions: Chlorocebus sabaeus
Vero [18] = assay: Evaluated in vitro for antiviral activity in vero cell cultures against forest virus; format: functional; conditions: Chlorocebus sabaeus
E6SM [19] = assay: In vitro antiviral activity in E6 cell cultures against herpes simplex virus type 2 (HSV-2) strain G; format: functional; conditions: Homo sapiens
HEL [20] = assay: Cytotoxic concentration required to reduce cell growth HEL cells (after 3 days) by 50 %; format: functional; conditions: Homo sapiens, 72 h
E6SM [21] = assay: In vitro antiviral activity in E6 cell cultures against vesicular stomatitis virus (VSV); format: functional; conditions: Homo sapiens
HEL [22] = assay: Evaluated in vitro for antiviral activity in human embryonic lung (HEL) cell cultures against Varicella-Zoster virus (VZV) strain YS; format: functional, cell-based
HEL [23] = assay: (§1) Evaluated in vitro for antiviral activity in human embryonic lung (HEL) cell cultures against cytomegalovirus (CMV) strain AD-169; format: functional
Vero [24] = assay: Evaluated in vitro for antiviral activity in vero cell cultures against Parainfluenza virus type 3; format: functional; conditions: Chlorocebus sabaeus
CCRF-CEM [25] = assay: 50% effective concentration required to protect CEM cells against the cytopathogenicity of HIV-1; format: functional, cell-based; conditions: Homo sapiens
CCRF-CEM [26] = assay: Evaluated in vitro for cytostatic activity against CEM cells; format: functional, cell-based; conditions: Homo sapiens
HEL [27] = assay: Evaluated in vitro for antiviral activity in human embryonic lung (HEL) cell cultures against TK+ VZV strain OKA; format: functional, cell-based
HEL [28] = assay: Evaluated in vitro for antiviral activity in human embryonic lung (HEL) cell cultures against TK- VZV strain 07/1; format: functional, cell-based
E6SM [29] = assay: Evaluated in vitro for its antiviral activity in E6 cell cultures against herpes simplex virus type 1 (HSV-1) strain KOS; format: functional; conditions: Homo sapiens
HEL [30] = assay: Evaluated in vitro for antiviral activity in human embryonic lung (HEL) cell cultures against […] TK- strain 07/1; format: functional, cell-based
E6SM [31] = assay: Evaluated in vitro for its antiviral activity in E6 cell cultures against herpes simplex virus type 1 (HSV-1) TK- B2006; format: functional; conditions: Homo sapiens
E6SM [32] = assay: Evaluated in vitro for its antiviral activity in E6 cell cultures against vaccinia virus (VV); format: functional; conditions: Homo sapiens
E6SM [33] = assay: Evaluated in vitro for its antiviral activity in E6 cell cultures against herpes simplex virus type 2 (HSV-2) strain G; format: functional; conditions: Homo sapiens
E6SM [34] = assay: Evaluated in vitro for its antiviral activity in E6 cell cultures against herpes simplex virus type 1 (HSV-1) TK- VMW 1837; format: functional; conditions: Homo sapiens
E6SM [35] = assay: Evaluated in vitro for its antiviral activity in E6 cell cultures against vesicular stomatitis virus (VSV); format: functional; conditions: Homo sapiens
HEL [36] = assay: Evaluated in vitro for antiviral activity in human embryonic lung (HEL) cell cultures against TK+ Varicella-Zoster virus (VZV) strain YS; format: functional, cell-based
HEL [37] = assay: as §1; format: functional, cell-based

## O=C(/C=C/c1cn([C@H]2C[C@H](O)[C@@H](CO)O2)c(=O)[nH]c1=O)c1ccccc1
Vero [1]
  MCC: 400 µg/mL
HEL [2]
  MCC: 50 µg/mL
HEL [3]
  MIC: > 100 mg/L
HEL [4]
  IC50: > 20 mg/L
MOLT-4
  IC50: 23 mg/L (≈ 64.2 µM)
E6SM [5]
  MCC: 40 µg/mL
E6SM [6]
  MIC: > 10 mg/L
CCRF-CEM [7]
  EC50: > 20 mg/L
Vero [8]
  MIC: > 200 mg/L
HEL [9]
  IC50: > 20 mg/L
E6SM [10]
  MIC: > 10 mg/L
HEL [11]
  IC50: > 20 mg/L
FM3A
  IC50: 32 mg/L (≈ 89.3 µM)
HEL [12]
  MIC: 70 mg/L (≈ 195 µM)
E6SM [13]
  MIC: > 10 mg/L
HeLa
  MCC: 20 µg/mL
E6SM [14]
  MIC: > 10 mg/L
Vero [15]
  MIC: > 200 mg/L
HEL [16]
  IC50: > 20 mg/L
L1210
  IC50: 30 mg/L (≈ 83.7 µM)
Vero [17]
  MIC: > 200 mg/L
Vero [18]
  MIC: > 200 mg/L
E6SM [19]
  MIC: > 10 mg/L
HEL [20]
  CC50: 140 mg/L (≈ 391 µM)
E6SM [21]
  MIC: > 10 mg/L
HEL [22]
  IC50: > 20 mg/L
HEL [23]
  MIC: > 20 mg/L
Vero [24]
  MIC: > 200 mg/L
CCRF-CEM [25]
  EC50: > 20 mg/L
CCRF-CEM [26]
  IC50: 24 mg/L (≈ 67 µM)

## COc1ccc(C(=O)/C=C/c2cn([C@H]3C[C@H](O)[C@@H](CO)O3)c(=O)[nH]c2=O)cc1
HEL [27]
  IC50: > 20 mg/L
Vero [1]
  MCC: 100 µg/mL
HEL [2]
  MCC: 20 µg/mL
HEL [3]
  MIC: > 100 mg/L
HEL [4]
  IC50: > 20 mg/L
MOLT-4
  IC50: > 100 mg/L
E6SM [5]
  MCC: 40 µg/mL
E6SM [6]
  MIC: > 10 mg/L
CCRF-CEM [7]
  EC50: > 40 mg/L
Vero [8]
  MIC: > 40 mg/L
E6SM [10]
  MIC: > 10 mg/L
HEL [11]
  IC50: > 5 mg/L
FM3A
  IC50: > 100 mg/L
HEL [12]
  MIC: > 100 mg/L
E6SM [13]
  MIC: > 10 mg/L
HeLa
  MCC: 20 µg/mL
E6SM [14]
  MIC: > 10 mg/L
Vero [15]
  MIC: > 40 mg/L
L1210
  IC50: > 100 mg/L
Vero [17]
  MIC: > 40 mg/L
Vero [18]
  MIC: > 40 mg/L
E6SM [19]
  MIC: > 10 mg/L
HEL [20]
  CC50: > 200 mg/L
E6SM [21]
  MIC: > 10 mg/L
HEL [22]
  IC50: > 20 mg/L
HEL [23]
  MIC: > 5 mg/L
HEL [28]
  IC50: > 20 mg/L
Vero [24]
  MIC: > 40 mg/L
CCRF-CEM [25]
  EC50: > 40 mg/L
CCRF-CEM [26]
  IC50: > 100 mg/L

## O=c1[nH]c(=O)n([C@H]2C[C@H](O)[C@@H](CO)O2)cc1/C=C/Br [BRIVUDINE]
HEL [27]
  IC50: 0.0008 mg/L (≈ 0.0024 µM)
Vero [1]
  MCC: > 400 µg/mL
HEL [2]
  MCC: > 50 µg/mL
HEL [3]
  MIC: > 400 mg/L
HEL [4]
  IC50: > 50 mg/L
E6SM [5]
  MCC: > 400 µg/mL
Vero [8]
  MIC: > 400 mg/L
E6SM [29]
  MIC: 0.02 mg/L (≈ 0.06 µM)
HEL [30]
  IC50: 5 mg/L (≈ 15 µM)
HEL [12]
  MIC: > 400 mg/L
HeLa
  MCC: > 400 µg/mL
E6SM [31]
  MIC: > 400 mg/L
E6SM [32]
  MIC: 10 mg/L (≈ 30 µM)
Vero [15]
  MIC: > 400 mg/L
E6SM [33]
  MIC: 100 mg/L (≈ 300 µM)
Vero [17]
  MIC: > 400 mg/L
E6SM [34]
  MIC: > 400 mg/L
Vero [18]
  MIC: > 400 mg/L
HEL [20]
  CC50: 150 mg/L (≈ 450 µM)
E6SM [35]
  MIC: > 400 mg/L
HEL [22]
  IC50: 0.002 mg/L (≈ 0.006 µM)
Vero [24]
  MIC: > 400 mg/L

## Nc1ccn(C[C@@H](CO)OCP(=O)(O)O)c(=O)n1.O.O [CIDOFOVIR]
HEL [27]
  IC50: 0.065 mg/L
HEL [2]
  MCC: > 50 µg/mL
HEL [4]
  IC50: 0.05 mg/L
HEL [11]
  IC50: 0.075 mg/L
HEL [36]
  IC50: 0.09 mg/L
HEL [37]
  IC50: 0.06 mg/L
HEL [20]
  CC50: > 200 mg/L
HEL [28]
  IC50: 0.055 mg/L
